Experimental data published in US8916570B2 (The United States of America, as represented by the …, priority 2008, dated 2014).

Tests used:
hA1AR = molecular target: T1, hA1AR (Homo sapiens, UniProt P30542); test: Binding at hA1AR, CHO membranes (Example 7); conditions: read-out: % inhibition hA1
T1 construct: expressed in transfected cells; host or cells: CHO
T1 sequence (P30542 1-326): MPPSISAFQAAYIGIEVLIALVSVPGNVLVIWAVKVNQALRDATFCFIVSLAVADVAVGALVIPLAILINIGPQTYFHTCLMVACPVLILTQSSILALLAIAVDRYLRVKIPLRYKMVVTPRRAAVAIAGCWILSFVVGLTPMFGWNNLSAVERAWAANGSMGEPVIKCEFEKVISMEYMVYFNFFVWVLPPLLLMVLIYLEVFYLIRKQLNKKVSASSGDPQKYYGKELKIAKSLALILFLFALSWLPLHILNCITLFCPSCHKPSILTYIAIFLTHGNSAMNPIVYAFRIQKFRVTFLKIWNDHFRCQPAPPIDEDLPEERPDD
Description: (§1) CHO cells stably expressing the recombinant hA1, hA3, and rA3Rs, and HEK-293 cells stably expressing the hA2AAR were cultured in Dulbecco's modified Eagle medium (DMEM) and F12 (1:1) supplemented with 10% fetal bovine serum, 100 units/mL penicillin, 100 μg/mL streptomycin, and 2 μmol/mL glutamine. In addition, 800 μg/mL geneticin was added to the A2A media, while 500 μg/mL hygromycin was added to the A1 and A3 media. After harvesting, cells were homogenized and suspended in PBS. Cells were then centrifuged at 240 g for 5 min, and the pellet was resuspended in 50 mM Tris-HCl buffer (pH 7.5) containing 10 mM MgCl2. The suspension was homogenized and was then ultra-centrifuged at 14,330 g for 30 min at 4° C. […] The protein concentration was measured using the BCA Protein Assay Kit from Pierce Biotechnology, Inc. (Rockford, Ill.).
(§2) Into each tube in the binding assay was added 50 μL of increasing concentrations of the test ligand in Tris-HCl buffer (50 mM, pH 7.5) containing 10 mM MgCl2, 50 μL of the appropriate agonist radioligand, and finally 100 μL of membrane suspension. […] For the A2AAR (20 μg/tube) the radioligand used was [^3H]53 (10 nM). […] Nonspecific binding was determined using a final concentration of 10 μM 51 diluted with the buffer. The mixtures were incubated at 25° C. for 60 min in a shaking water bath. Binding reactions were terminated by filtration through Brandel GF/B filters under a reduced pressure using a M-24 cell harvester (Brandel, Gaithersburg, Md.). Filters were washed three times with 3 mL of 50 mM ice-cold Tris-HCl buffer (pH 7.5). […] Filters for A3AR binding were counted using a Packard COBRA™ II γ-counter. The Ki values were determined using GraphPad Prism for all assays.

hA2AAR = molecular target: T2, hA2AAR (Homo sapiens, UniProt P29274); test: Binding at hA2AAR, HEK-293 membranes (Example 7); conditions: read-out: % inhibition hA2A
T2 construct: expressed in transfected cells
Description: After harvesting, cells were homogenized and suspended in PBS.
Nonspecific binding was determined using a final concentration of 10 μM 51 diluted with the buffer.

hA3AR = molecular target: T3, hA3AR (Homo sapiens, UniProt P0DMS8); test: Binding at hA3AR, CHO membranes (Example 7); conditions: read-out: Affinity (Ki, nM) hA3
T3 construct: expressed in transfected cells; host or cells: CHO
T3 sequence (P0DMS8 1-318): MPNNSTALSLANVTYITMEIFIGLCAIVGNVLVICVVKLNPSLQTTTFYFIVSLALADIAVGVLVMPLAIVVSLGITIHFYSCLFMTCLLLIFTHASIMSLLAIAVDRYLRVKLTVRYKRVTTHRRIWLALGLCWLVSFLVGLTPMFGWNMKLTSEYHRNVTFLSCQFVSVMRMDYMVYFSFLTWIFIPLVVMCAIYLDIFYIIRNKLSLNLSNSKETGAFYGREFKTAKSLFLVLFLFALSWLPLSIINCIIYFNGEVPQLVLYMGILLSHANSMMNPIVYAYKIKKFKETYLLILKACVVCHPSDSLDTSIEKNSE
Description: as §1, §2

mA1AR = molecular target: T4, mA1AR (Mus musculus, UniProt Q60612); test: Competition binding at mA1AR, HEK293 membranes (Example 8); conditions: percent in parentheses, concentration not given
T4 construct: expressed in transfected cells
T4 sequence (Q60612 1-326): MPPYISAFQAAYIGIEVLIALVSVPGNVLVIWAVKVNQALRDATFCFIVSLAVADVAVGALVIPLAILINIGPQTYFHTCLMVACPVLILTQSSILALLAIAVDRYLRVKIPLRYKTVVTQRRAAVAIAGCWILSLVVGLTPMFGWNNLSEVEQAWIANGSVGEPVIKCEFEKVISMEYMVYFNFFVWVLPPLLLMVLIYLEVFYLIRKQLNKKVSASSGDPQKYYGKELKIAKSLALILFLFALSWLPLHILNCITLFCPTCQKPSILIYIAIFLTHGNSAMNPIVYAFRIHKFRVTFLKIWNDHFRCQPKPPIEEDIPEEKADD

mA3AR = molecular target: T5, mA3AR (Mus musculus, UniProt Q61618); test: Competition binding at mA3AR, HEK293 membranes (Example 8); conditions: read-out: Affinity (Ki, nM) mA3
T5 construct: expressed in transfected cells
T5 sequence (Q61618 1-319): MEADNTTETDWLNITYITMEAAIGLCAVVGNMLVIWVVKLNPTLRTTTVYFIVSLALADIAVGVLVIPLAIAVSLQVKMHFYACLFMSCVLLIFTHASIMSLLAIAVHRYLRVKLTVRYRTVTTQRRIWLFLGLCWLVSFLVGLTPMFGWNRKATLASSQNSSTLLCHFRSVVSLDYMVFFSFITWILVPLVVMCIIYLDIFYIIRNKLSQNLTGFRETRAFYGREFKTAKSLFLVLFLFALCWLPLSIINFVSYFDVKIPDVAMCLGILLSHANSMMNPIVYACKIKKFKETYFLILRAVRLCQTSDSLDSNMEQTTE

[1] = molecular target: human A2A adenosine receptor (Homo sapiens, UniProt P29274); test: Radioligand binding, human A2A AR (Table 1); conditions: for inhibition at 10 µM: read-out: A2A % inhib.
[2] = molecular target: T6, human A1 adenosine receptor (Homo sapiens, UniProt P30542); test: Radioligand binding, human A1 AR, CHO membranes (Table 1); conditions: for A1 % inhib.: species H (human), percent in parentheses, concentration not marked
T6 sequence (P30542 1-326): T1 sequence (P30542 1-326)

[3] = molecular target: T7, human A3 adenosine receptor (Homo sapiens, UniProt P0DMS8); test: [125I]I-AB-MECA binding, human A3 AR, CHO membranes (Table 1); conditions: for Ki: A3 Ki, species H (human); for Selectivity A1/A3: human
T7 sequence (P0DMS8 1-318): T3 sequence (P0DMS8 1-318)

[4] = molecular target: T8, mouse A1 adenosine receptor (Mus musculus, UniProt Q60612); test: Competition radioligand binding, mouse A1 AR, HEK293 membranes (Table 1)
T8 sequence (Q60612 1-326): T4 sequence (Q60612 1-326)

[5] = molecular target: T9, mouse A3 adenosine receptor (Mus musculus, UniProt Q61618); test: Competition radioligand binding, mouse A3 AR, HEK293 membranes (Table 1); conditions: for Ki: A3 Ki, species M (mouse), [125I]I-AB-MECA; for Selectivity A1/A3: mouse
T9 sequence (Q61618 1-319): T5 sequence (Q61618 1-319)

[6] = molecular target: mouse A2A adenosine receptor (Mus musculus, UniProt Q60613); test: Competition radioligand binding, mouse A2A AR, HEK293 membranes (Table 1); conditions: read-out: A2A % inhib.
human A3AR = molecular target: T10, human A3AR (Homo sapiens, UniProt P0DMS8); test: Inhibition of forskolin-stimulated cyclic AMP production in AR transfected CHO cells (Table 1); type: cell-based; conditions: CHO; read-out: % Efficacy at the human A3 AR
T10 construct: expressed in transfected cells; host or cells: CHO
T10 sequence (P0DMS8 1-318): T3 sequence (P0DMS8 1-318)

mouse A2A adenosine receptor, sequence (Q60613 whole entry): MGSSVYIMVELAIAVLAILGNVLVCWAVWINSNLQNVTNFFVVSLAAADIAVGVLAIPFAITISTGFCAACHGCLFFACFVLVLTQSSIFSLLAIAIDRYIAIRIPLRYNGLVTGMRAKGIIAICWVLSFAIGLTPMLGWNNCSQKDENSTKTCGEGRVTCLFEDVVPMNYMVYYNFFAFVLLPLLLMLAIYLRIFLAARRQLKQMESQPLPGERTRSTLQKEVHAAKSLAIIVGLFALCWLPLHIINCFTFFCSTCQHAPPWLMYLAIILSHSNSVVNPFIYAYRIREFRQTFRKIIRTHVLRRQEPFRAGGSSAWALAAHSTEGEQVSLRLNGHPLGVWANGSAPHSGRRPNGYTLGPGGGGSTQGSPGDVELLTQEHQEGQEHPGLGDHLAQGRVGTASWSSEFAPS
human A2A adenosine receptor, sequence (P29274 whole entry): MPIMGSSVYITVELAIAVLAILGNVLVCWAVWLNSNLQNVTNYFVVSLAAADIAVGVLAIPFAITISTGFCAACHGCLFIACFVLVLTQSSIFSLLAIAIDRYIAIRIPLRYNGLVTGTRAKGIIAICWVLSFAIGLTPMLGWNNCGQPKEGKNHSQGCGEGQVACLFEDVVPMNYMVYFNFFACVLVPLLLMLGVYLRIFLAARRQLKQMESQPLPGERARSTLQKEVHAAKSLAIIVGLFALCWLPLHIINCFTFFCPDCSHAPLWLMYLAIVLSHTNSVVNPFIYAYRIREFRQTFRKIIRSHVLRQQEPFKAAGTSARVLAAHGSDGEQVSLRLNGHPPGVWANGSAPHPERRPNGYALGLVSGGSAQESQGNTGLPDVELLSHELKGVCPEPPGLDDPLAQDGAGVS
T2 sequence (P29274 whole entry): as above

Structure (SMILES): CNC(=O)[C@@]12C[C@@H]1[C@@H](n1cnc3c(NCc4cccc(Cl)c4)nc(C#Cc4ccccc4Cl)nc31)[C@H](O)[C@@H]2O [Compound 329, (1S,2R,3S,4R,5S)-4-(6-(3-Chlorobenzylamino)-2-((2-chlorophenyl)ethynyl)-9H-purin-9-yl)-2,3-dihydroxy-N-methylbicyclo[3.1.0]hexane-1-carboxamide]
- inhibition at 10 µM (hA1AR): 20%
- inhibition at 10 µM (hA2AAR): 52%
- Ki (hA3AR): 1.92 ± 0.57 nM
- % inhibition mA1 (mA1AR): (36%)
- Ki (mA3AR): 7.5 nM

Structure (SMILES): CNC(=O)[C@@]12C[C@@H]1[C@@H](n1cnc3c(NCc4cccc(Cl)c4)nc(C#Cc4ccc(-c5ccccc5)cc4)nc31)[C@H](O)[C@@H]2O [Compound 335, (1S,2R,3S,4R,5S)-4-(2-(Biphenyl-4-ylethynyl)-6-(3-chlorobenzylamino)-9H-purin-9-yl)-2,3-dihydroxy-N-methylbicyclo[3.1.0]hexane-1-carboxamide]
- inhibition at 10 µM (hA2AAR): 0%
- Ki (hA3AR): 3.06 ± 1.35 nM
- % inhibition mA1 (mA1AR): (28%)
- Ki (mA3AR): 22 nM

Structure (SMILES): CNC(=O)[C@@]12C[C@@H]1[C@@H](n1cnc3c(NCc4cccc(Cl)c4)nc(C#Cc4ccc(F)cc4)nc31)[C@H](O)[C@@H]2O [Compound 328, (1S,2R,3S,4R,5S)-4-(6-(3-Chlorobenzylamino)-2-((4-fluorophenyl)ethynyl)-9H-purin-9-yl)-2,3-dihydroxy-N-methylbicyclo[3.1.0]hexane-1-carboxamide]
- inhibition at 10 µM (hA1AR): 19%
- inhibition at 10 µM (hA2AAR): 42%
- % inhibition mA1 (mA1AR): (39%)
- Ki (mA3AR): 7.5 nM

Structure (SMILES): CNC(=O)C12CC1C(n1cnc3c(NOC)nc(Cl)nc31)C(O)C2O (stereo not drawn) [Compound 21, (1′S,2′R,3′S,4′S,5′S)-4′-[6-Methoxyamino-2-chloropurin-9-yl]-2′,3′-dihydroxybicyclo[3.1.0]hexane-1′-carboxylic acid N-methylamide]
- inhibition at 10 µM [1]: 2%
- Ki [2]: 0.265 ± 0.045 µM
- Ki [3]: 0.149 ± 0.015 µM
- Selectivity A1/A3 [3]: 1.8
- Ki [4]: 1.16 ± 0.13 µM
- Ki [5]: 0.877 ± 0.149 µM
- Selectivity A1/A3 [5]: 1.3
- inhibition at 100 µM [6]: 2%

Structure (SMILES): CNC(=O)C12CC1C(n1cnc3c(NCc4cccc(Cl)c4)nc(C#CCCC(=O)NCCCCN)nc31)C(O)C2O (stereo not drawn) [Compound 40, (1′S, 2′R, 3′S, 4′S, 5′S)-4′-[6-(3-Chlorobenzylamino)-2-(4-(β-aminobutylaminocarbonyl)-1-butynyl)-9-yl]-2′,3′-dihydroxybicyclo[3.1.0]hexane-1′-carboxylic acid N-methylamide]
- Emax at 10 µM (human A3AR): 102 ± 13%
- Ki [1]: 0.766 ± 0.109 µM
- Ki [3]: 0.0021 ± 0.0004 µM
- Selectivity A1/A3 [3]: up to 1900

Structure (SMILES): CNC(=O)C12CC1C(n1cnc3c(NCc4cccc(Cl)c4)nc(C#CCCCC(=O)NCCN)nc31)C(O)C2O (centres unmarked) [Compound 8]
- inhibition at 10 µM [1]: 81%
- Ki [2]: 0.454 ± 0.044 µM
- Ki [3]: 0.00217 ± 0.00051 µM
- Selectivity A1/A3 [3]: 209
- Ki [4]: 0.546 ± 0.062 µM
- Ki [5]: 0.0086 ± 0.00102 µM
- Selectivity A1/A3 [5]: 64
- inhibition at 100 µM [6]: 31%

Structure (SMILES): CNC(=O)C12CC1C(n1cnc3c(NCc4cccc(Cl)c4)nc(C#CCCCCC(=O)OC)nc31)C(O)C2O (centres unmarked) [Compound 36]
- Emax at 10 µM (human A3AR): 90 ± 6.2%
- Ki [1]: 3.54 ± 1.37 µM
- A1 % inhib. [2]: (21 ± 8%)
- Ki [3]: 0.0111 ± 0.0023 µM

Structure (SMILES): CNC(=O)C12CC1C(n1cnc3c(NCc4cccc(Cl)c4)nc(C#CCCC(=O)NCCNC(=O)CCCCCNC(=O)CCCCC4SCC5NC(=O)NC54)nc31)C(O)C2O (stereo not drawn) [Compound 43, (1′S,2′R,3′S,4′S,5′S)-4′-[6-(3-Chlorobenzylamino)-2-(N-biotinyl {5-aminopentanyl}(β-aminoethylaminocarbonyl)-1-butynyl)-9-yl]-2′,3′-dihydroxybicyclo[3.1.0]hexane-1′-carboxylic acid N-methylamide]
- Emax at 10 µM (human A3AR): 106 ± 17.7%
- A1 % inhib. [2]: (8 ± 4%)
- Ki [3]: 0.0577 ± 0.0162 µM

Structure (SMILES): CNC(=O)C12CC1C(n1cnc3c(NCc4cccc(Cl)c4)nc(C#CCCC(=O)OC)nc31)C(O)C2O (centres unmarked) [Compound 35]
- Emax at 10 µM (human A3AR): 74.4 ± 5.1%
- A1 % inhib. [2]: (19 ± 3%)
- Ki [3]: 0.0055 ± 0.0003 µM

Structure (SMILES): CNC(=O)C12CC1C(n1cnc3c(NCc4cccc(Cl)c4)nc(C#C[Si](C)(C)C)nc31)C(O)C2O (stereo not drawn) [Compound 4, (1′S,2′R,3′S,4′S,5′S)-4′-[6-(3-Chlorobenzylamino)-2-trimethylsilylethynyl-9-yl]-2′,3′-dihydroxybicyclo[3.1.0]hexane-1′-carboxylic acid N-methylamide]
- inhibition at 10 µM [1]: 52%
- Ki [2]: 0.16 ± 0.04 µM
- Ki [3]: 0.00098 ± 0.00014 µM
- Selectivity A1/A3 [3]: 160
- Ki [4]: 0.159 ± 0.022 µM
- Ki [5]: 0.00446 ± 0.00057 µM
- Selectivity A1/A3 [5]: 35.6
- inhibition at 100 µM [6]: 20%

Structure (SMILES): CNC(=O)[C@@]12C[C@@H]1[C@@H](n1cnc3c(NCc4cccc(Cl)c4)nc(C#Cc4ccccc4)nc31)[C@H](O)[C@@H]2O [Compound 327, (1S,2R,3S,4R,5S)-4-(6-(3-Chlorobenzylamino)-2-(phenylethynyl)-9H-purin-9-yl)-2,3-dihydroxy-N-methylbicyclo[3.1.0]hexane-1-carboxamide]
- inhibition at 10 µM (hA1AR): 18%
- inhibition at 10 µM (hA2AAR): 27%
- % inhibition mA1 (mA1AR): (41%)
- Ki (mA3AR): 16 nM

Structure (SMILES): CNC(=O)C12CC1C(n1cnc3c(NCc4cccc(Cl)c4)nc(C#CCCC(=O)O)nc31)C(O)C2O (centres unmarked) [Compound 33]
- Emax at 10 µM (human A3AR): 106 ± 17.7%
- Ki [3]: 0.0611 ± 0.0358 µM

Structure (SMILES): CNC(=O)C12CC1C(n1cnc3c(NC4CCCC4)nc(Cl)nc31)C(O)C2O (centres unmarked) [Compound 32]
- Emax at 10 µM (human A3AR): 101%
- Ki [1]: 3.25 ± 0.3 µM
- Ki [2]: 0.0183 ± 0.0063 µM

Structure (SMILES): CNC(=O)C12CC1C(n1cnc3c(NCc4cccc(C#CCCCC(=O)NCCN)c4)nc(Cl)nc31)C(O)C2O (centres unmarked) [Compound 10]
- inhibition at 10 µM [1]: 58%
- Ki [2]: 0.271 ± 0.023 µM
- Ki [3]: 0.00521 µM
- Selectivity A1/A3 [3]: 52
- Ki [4]: 0.151 ± 0.018 µM
- Ki [5]: 0.0119 ± 0.0024 µM
- Selectivity A1/A3 [5]: 13
- inhibition at 100 µM [6]: 39%
